The values that follow come from patent EP2121694B1, “CYCLOPROPYL FUSED INDOLOBENZAZEPINE HCV NS5B INHIBITORS” (Bristol-Myers Squibb Company, priority 2007, dated 2008).

T1 sequence (Q9WMX2 2420-2992): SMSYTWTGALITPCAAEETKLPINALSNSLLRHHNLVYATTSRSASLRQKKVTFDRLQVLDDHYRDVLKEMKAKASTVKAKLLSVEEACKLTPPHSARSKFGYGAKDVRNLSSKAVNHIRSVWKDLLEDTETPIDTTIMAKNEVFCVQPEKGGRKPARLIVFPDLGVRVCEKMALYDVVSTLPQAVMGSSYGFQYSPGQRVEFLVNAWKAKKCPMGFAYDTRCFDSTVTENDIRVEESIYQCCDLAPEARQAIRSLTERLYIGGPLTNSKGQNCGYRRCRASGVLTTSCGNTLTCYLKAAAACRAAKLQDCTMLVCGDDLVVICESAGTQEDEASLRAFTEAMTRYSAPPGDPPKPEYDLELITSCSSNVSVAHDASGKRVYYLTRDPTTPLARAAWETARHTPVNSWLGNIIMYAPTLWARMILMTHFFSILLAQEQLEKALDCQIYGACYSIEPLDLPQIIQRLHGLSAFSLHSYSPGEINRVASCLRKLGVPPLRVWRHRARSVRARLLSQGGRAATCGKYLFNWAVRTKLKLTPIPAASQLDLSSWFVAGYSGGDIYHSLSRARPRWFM

The experiment addresses T1, HCV NS5B (Hepatitis C virus genotype 1b, UniProt Q9WMX2).
T1 construct: The protein was expressed with an 18 amino acid C-terminal truncation to enhance the solubility; made in house; host or cells: E. coli BL21(DE3), pET21a vector
Nature of the experiment: Modified HCV NS5B RdRp enzyme assay (preincubation protocol). In kind it is biochemical. The following applies: HCV NS5B RdRp genotype 1b. The method, then:
HCV NS5B RdRp cloning, expression, and purification. The cDNA encoding the NS5B protein of HCV, genotype 1b, was cloned into the pET21a expression vector. The protein was expressed with an 18 amino acid C-terminal truncation to enhance the solubility. The E. coli competent cell line BL21(DE3) was used for expression of the protein. Cultures were grown at 37 °C for ∼ 4 hours until the cultures reached an optical density of 2.0 at 600 nm. The cultures were cooled to 20 °C and induced with 1 mM IPTG. Fresh ampicillin was added to a final concentration of 50 µg/ml and the cells were grown overnight at 20 °C.
Cell pellets (3L) were lysed for purification to yield 15-24 mgs of purified NS5B. The lysis buffer consisted of 20 mM Tris-HCl, pH 7.4, 500 mM NaCl, 0.5% triton X-100, 1 mM DTT, 1mM EDTA, 20% glycerol, 0.5 mg/ml lysozyme, 10 mM MgCl2, 15 ug/ml deoxyribonuclease I, and Complete TM protease inhibitor tablets (Roche). After addition of the lysis buffer, frozen cell pellets were resuspended using a tissue homogenizer. To reduce the viscosity of the sample, aliquots of the lysate were sonicated on ice using a microtip attached to a Branson sonicator. The sonicated lysate was centrifuged at 100,000 x g for 1hr at 4 °C and filtered through a 0.2 µm filter unit (Corning).
The protein was purified using three sequential chromatography steps: Heparin sepharose CL-6B, polyU sepharose 4B, and Hitrap SP sepharose (Pharmacia). The chromatography buffers were identical to the lysis buffer but contained no lysozyme, deoxyribonuclease I, MgCl2 or protease inhibitor and the NaCl concentration of the buffer was adjusted according to the requirements for charging the protein onto the column. Each column was eluted with a NaCl gradient which varied in length from 5-50 column volumes depending on the column type. After the final chromatography step, the resulting purity of the enzyme is >90% based on SDS-PAGE analysis. The enzyme was aliquoted and stored at -80 °C.
Standard HCV NS5B RdRp enzyme assay. HCV RdRp genotype 1b assays were run in a final volume of 60 µl in 96 well plates (Costar 3912). The assay buffer is composed of 20 mM Hepes, pH 7.5, 2.5 mM KCl, 2.5 mM MgCl2, 1 mM DTT, 1.6 U RNAse inhibitor (Promega N2515), 0.1 mg/ml BSA (Promega R3961), and 2 % glycerol. All compounds were serially diluted (3-fold) in DMSO and diluted further in water such that the final concentration of DMSO in the assay was 2%. HCV RdRp genotype 1b enzyme was used at a final concentration of 28 nM. A polyA template was used at 6 nM, and a biotinylated oligo-dT12 primer was used at 180 nM final concentration. Template was obtained commercially (Amersham 27-4110). Biotinylated primer was prepared by Sigma Genosys. 3H-UTP was used at 0.6 µCi (0.29 µM total UTP). Reactions were initiated by the addition of enzyme, incubated at 30 °C for 60 min, and stopped by adding 25 µl of 50 mM EDTA containing SPA beads (4 µg/µl, Amersham RPNQ 0007). Plates were read on a Packard Top Count NXT after >1hr incubation at room temperature.
Modified HCV NS5B RdRp enzyme assay. A modified enzyme assay was performed essentially as described for the standard enzyme assay except for the following: The biotinylated oligo dT12 primer was precaptured on streptavidin-coated SPA beads by mixing primer and beads in assay buffer and incubating at room temperature for one hour. Unbound primer was removed after centrifugation. The primer-bound beads were resuspended in 20 mM Hepes buffer, pH 7.5 and used in the assay at final concentrations of 20 nM primer and 0.67 µg/µl beads. Order of addition in the assay: enzyme (14 nM) was added to diluted compound followed by the addition of a mixture of template (0.2 nM) , 3H-UTP (0.6 µCi, 0.29 µM), and primer-bound beads, to initiate the reaction; concentrations given are final. Reactions were allowed to proceed for 4 hours at 30° C.
IC50 values for compounds were determined using seven different [I]. […]
On to `COc1ccc2c(c1)C1CC1(C(=O)N1CCCN(C)CC1)Cn1c-2c(C2CCCCC2)c2ccc(C(=O)NS(=O)(=O)N(C)C)cc21` (centres unmarked) [drawing 65], for which the IC50 (in general, the concentration needed to halve the response being measured) was 97 to 1000 nM.
`COc1ccc2c(c1)C1CC1(C(=O)O)Cn1c-2c(C2CCCCC2)c2ccc(C(=O)NS(=O)(=O)C3CC3)cc21` (centres unmarked) yielded a half-maximal inhibitory concentration (IC50) of 97 to 1000 nM.
The compound `COc1ccc2c(c1)C1CC1(C(=O)N1CCCCC1CN(C)C)Cn1c-2c(C2CCCCC2)c2ccc(C(=O)NS(=O)(=O)N(C)C)cc21` (centres unmarked) [drawing 50] showed a concentration for half-maximal inhibition (IC50) of 97 to 1000 nM.
The same measure for `CCC(CC)N1CCN(C(=O)C23CC2c2cc(OC)ccc2-c2c(C4CCCCC4)c4ccc(C(=O)NS(=O)(=O)N(C)C)cc4n2C3)CC1` (centres unmarked) [drawing 37]: 97 to 1000 nM.
The same measure for `COc1ccc2c(c1)C1CC1(C(=O)N1CCCN(C)CC1)Cn1c-2c(C2CCCCC2)c2ccc(C(=O)NS(=O)(=O)N3CCC3)cc21` (centres unmarked): 97 to 1000 nM; for `COC(=O)c1ccc2c(C3CCCCC3)c3n(c2c1)CC1(C(=O)O)CC1c1c(OC(F)(F)F)cccc1-3` (centres unmarked): 1000 to 10000 nM.
The same measure for `COC(=O)C12CC1c1cc(OC)ccc1-c1c(C3CCCCC3)c3ccc(C(=O)NS(=O)(=O)C(C)C)cc3n1C2` (centres unmarked): 97 to 1000 nM; for `CCC(CC)N1CCN(C(=O)C23CC2c2cc(OC)ccc2-c2c(C4CCCCC4)c4ccc(C(=O)NS(=O)(=O)N(C)C)cc4n2C3)CC1` (centres unmarked) [drawing 39]: 97 to 1000 nM.
The compound `COc1ccc2c(c1)C1CC1(C(=O)O)Cn1c-2c(C2CCCCC2)c2ccc(C(=O)OC(C)(C)C)cc21` (centres unmarked) registered an IC50 of 1000 to 10000 nM.
The same measure for `COc1ccc2c(c1)C1CC1(C(=O)O)Cn1c-2c(C2CCCCC2)c2ccc(C(=O)NS(N)(=O)=O)cc21` (centres unmarked): 97 to 1000 nM.
With `COc1ccc2c(c1)C1CC1(C(=O)N1CCC(C)(O)CC1)Cn1c-2c(C2CCCCC2)c2ccc(C(=O)NS(=O)(=O)C3CC3)cc21` (centres unmarked), the IC50 was in the range of 97 to 1000 nM.
The same measure for `COc1ccc2c(c1)C1CC1(C(=O)O)Cn1c-2c(C2CCCCC2)c2ccc(C(=O)NS(=O)(=O)C(C)C)cc21` (centres unmarked): 97 to 1000 nM; for `COC(=O)C12CC1c1cc(OC)ccc1-c1c(C3CCCCC3)c3ccc(C(=O)NS(N)(=O)=O)cc3n1C2` (centres unmarked): 97 to 1000 nM.
`COC(=O)c1ccc2c(C3CCCCC3)c3n(c2c1)CC1(C(=O)N2CC(C)OC(C)C2)CC1c1c(OC(F)(F)F)cccc1-3` (centres unmarked) yielded an IC50 of 1000 to 10000 nM.
